Laboratory results reported in patent publication US7718700B2, “Growth factor-binding compounds and methods of use” (Yale University, priority 2004, dated 2010).
“Also recorded” adds a separate entry of the source.

Key:
A-549 xenografts = experiment: Antitumor activity in the nude mouse A-549 tumor xenograft model; format: in vivo, nude mice; conditions: for average tumor size: 3 weeks
Method: FIG. 6 illustrates that GFB204 inhibits A-549 xenografts growth in nude mice (FIG. 6). A-549 cells were implanted into the flanks of nude mice and when the tumors reached an average size of about 100 mm^3, the mice were randomized and treated either with vehicle (♦) or GFB204 at 1 mg/kg (▪) and 5 mg/kg (●), and tumor sizes measured as described under Materials and Methods. Tumors were processed two hours after the last i.p. injection for CD31 IHC staining as described under Materials and Methods.
Antitumor activity in the nude mouse tumor xenograft model. Nude mice (Charles River, Wilmington, Mass.) were maintained in accordance with the Institutional Animal Care and Use Committee (IACUC) procedures and guidelines. A-549 cells were harvested and resuspended in PBS, then injected s.c. into the right and left flanks (10×10^6 cells per flank) of 8 week old female nude mice as reported previously (Sun, J. et al. Cancer Res, 1999, 59:4919-26). When tumors reached about 100 mm^3, animals were dosed i.p. with 0.2 ml solution once daily. Control animals received a vehicle whereas treated animals were injected with GFB204 (1 or 5 mg/kg/day). The tumor volumes were determined by measuring the length (l) and the width (w) and calculating the volume (V=lw^2/2) as described previously (Sun, J. et al. Cancer Res, 1999, 59:4919-26). Statistical significance between control and treated animals were evaluated using Student's t-test.

EGFR = biological target: T1, EGFR (Homo sapiens, UniProt P00533); experiment: 125I-EGF binding to its receptor on EGFR/NIH 3T3 cells; conditions: concentrations as high as 100 μM
T1 construct: expressed in transfected cells; host or cells: NIH 3T3 (EGFR/NIH 3T3)
Method: Flk-1/NIH 3T3, NIH 3T3 and EGFR/NIH 3T3 cells were incubated with ^125I-VEGF, ^125I-PDGF and ^125I-EGF (50,000 cpm/well) respectively, along with increasing concentrations of GFB204. Cells were incubated at 4° C. for 0.5 hours, then washed three times with PBS and three times with lysis buffer prior to determining ^125I counts as described under Materials and Methods. An excess of cold VEGF, PDGF, and EGF was used to obtain non-specific binding levels. FIGS. 2A-2C show specific binding (% control) for PDGFR, Flk-1, and EGFR, respectively.
Binding of ^125I-growth factors to their receptors. The binding assay of ^125I-VEGF, ^125I-PDGF and ^125I-EGF to their respective receptors was carried out as described previously (Blaskovich, M. A. et al. Nat Biotechnol, 2000, 18:1065-70. Briefly, Flk-1/NIH 3T3 cells, NIH 3T3 cells and EGFR/NIH 3T3 cells were incubated with ^125I-VEGF, ^125I-PDGF and ^125I-EGF (50,000 cpm/well), respectively, and increasing concentrations of GFB204. Cells were incubated at 4° C. for 0.5 hours, then washed three times with PBS and three times with 25 mM Tris, pH 8.0, 1% Triton-X-100, 10% glycerol, and 1% SDS prior to determining ^125I counts on a gamma counter (Beckmann Inc.). An excess of cold growth factors were used to obtain nonspecific binding levels.

VEGF = biological target: T2, VEGF (Homo sapiens, UniProt P15692); experiment: Tryptophan fluorescence titration of VEGF; format: binding; conditions: emission at 334 nm
T2 sequence (P15692 27-191 isoform P15692-4): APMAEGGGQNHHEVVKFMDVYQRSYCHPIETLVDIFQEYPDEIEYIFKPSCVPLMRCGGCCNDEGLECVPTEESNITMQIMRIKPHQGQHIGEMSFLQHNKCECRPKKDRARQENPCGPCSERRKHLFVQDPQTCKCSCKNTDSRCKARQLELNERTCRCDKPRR
Method: (§1) FIGS. 2D and 2E illustrate that GFB-204 binds PDGF and VEGF as indicated by growth factor tryptophan when increased amounts of GFB204 were added to PDGF and VEGF, respectively. The fluorescence was monitored by excitation at 295 nm and 228 nm, respectively, and emission at 334 nm.
(§2) Both VEGF and PDGF contain tryptophans that fluoresce at […] when excited at […].

[1] = test system: EGF-stimulated Erk1, Erk2, Akt and STAT3 phosphorylation; experiment: EGF-stimulated phosphorylation of Erk1/2, Akt and STAT3 in EGFR/NIH 3T3 cells; format: cell-based, mouse; conditions: GFB204 10 μM
Method: (§3) FIGS. 3A and 3B show the effect of GFB204 on growth factor stimulated Erk1, Erk2, Akt, and STAT3 phosphorylation. GFB204 inhibits VEGF and PDGF stimulation of Flk-1 tyrosine phosphorylation and Erk1/Erk2 phosphorylation (FIG. 3A). NIH 3T3 cells or Flk-1/NIH 3T3 cells were treated with increasing concentrations of GFB204 for 5 minutes prior to stimulation with PDGFBB (10 ng/ml) or VEGF (50 ng/ml), respectively, for 10 minutes. The cells were then lysed and processed for SDS-PAGE Western blotting with an antibody specific for phosphotyrosine-Flk-1 or anti-phosphotyrosine for PDGFR tyrosine phosphorylation or phospho-Erk1/2. GFB204 effects on growth factor-stimulated Erk1, Erk2, Akt and STAT3 phosphorylation (FIG. 3B). NIH 3T3, Flk-1/NIH 3T3, IGF-1R/NIH 3T3 or EGFR/NIH 3T3 cells were treated with GFB204 (10 μM) prior to stimulation with PDGF (NIH 3T3) VEGF (Flk-1/NIH 3T3), EGF (EGFR/NIH 3T3), bFGF (NIH 3T3) or IGF-1 (IGF-1R/NIH 3T3). The cells were then harvested and processed for SDS-PAGE Western blotting with antibodies specific for phospho-Erk1/2, phospho-Akt and phospho-STAT3.
(§4) Growth factor-mediated stimulation of phosphorylation of Erk1/2, Akt and STAT3. […]

PDGF = PDGF (Homo sapiens, UniProt P01127); experiment: Tryptophan fluorescence titration of PDGF; format: binding; conditions: emission at 334 nm
Method: as §1, §2

[2] = test system: PDGF-stimulated Erk1, Erk2, Akt and STAT3 phosphorylation; experiment: PDGF-stimulated phosphorylation of Erk1/2, Akt and STAT3 in NIH 3T3 cells; format: cell-based, mouse; conditions: GFB204 10 μM
Method: as §3, §4

PDGF, sequence (P01127 82-190 limits assumed): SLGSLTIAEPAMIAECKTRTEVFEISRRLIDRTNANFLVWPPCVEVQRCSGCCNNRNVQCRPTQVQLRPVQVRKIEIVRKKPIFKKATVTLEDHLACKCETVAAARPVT
T1 sequence (P00533 25-1210): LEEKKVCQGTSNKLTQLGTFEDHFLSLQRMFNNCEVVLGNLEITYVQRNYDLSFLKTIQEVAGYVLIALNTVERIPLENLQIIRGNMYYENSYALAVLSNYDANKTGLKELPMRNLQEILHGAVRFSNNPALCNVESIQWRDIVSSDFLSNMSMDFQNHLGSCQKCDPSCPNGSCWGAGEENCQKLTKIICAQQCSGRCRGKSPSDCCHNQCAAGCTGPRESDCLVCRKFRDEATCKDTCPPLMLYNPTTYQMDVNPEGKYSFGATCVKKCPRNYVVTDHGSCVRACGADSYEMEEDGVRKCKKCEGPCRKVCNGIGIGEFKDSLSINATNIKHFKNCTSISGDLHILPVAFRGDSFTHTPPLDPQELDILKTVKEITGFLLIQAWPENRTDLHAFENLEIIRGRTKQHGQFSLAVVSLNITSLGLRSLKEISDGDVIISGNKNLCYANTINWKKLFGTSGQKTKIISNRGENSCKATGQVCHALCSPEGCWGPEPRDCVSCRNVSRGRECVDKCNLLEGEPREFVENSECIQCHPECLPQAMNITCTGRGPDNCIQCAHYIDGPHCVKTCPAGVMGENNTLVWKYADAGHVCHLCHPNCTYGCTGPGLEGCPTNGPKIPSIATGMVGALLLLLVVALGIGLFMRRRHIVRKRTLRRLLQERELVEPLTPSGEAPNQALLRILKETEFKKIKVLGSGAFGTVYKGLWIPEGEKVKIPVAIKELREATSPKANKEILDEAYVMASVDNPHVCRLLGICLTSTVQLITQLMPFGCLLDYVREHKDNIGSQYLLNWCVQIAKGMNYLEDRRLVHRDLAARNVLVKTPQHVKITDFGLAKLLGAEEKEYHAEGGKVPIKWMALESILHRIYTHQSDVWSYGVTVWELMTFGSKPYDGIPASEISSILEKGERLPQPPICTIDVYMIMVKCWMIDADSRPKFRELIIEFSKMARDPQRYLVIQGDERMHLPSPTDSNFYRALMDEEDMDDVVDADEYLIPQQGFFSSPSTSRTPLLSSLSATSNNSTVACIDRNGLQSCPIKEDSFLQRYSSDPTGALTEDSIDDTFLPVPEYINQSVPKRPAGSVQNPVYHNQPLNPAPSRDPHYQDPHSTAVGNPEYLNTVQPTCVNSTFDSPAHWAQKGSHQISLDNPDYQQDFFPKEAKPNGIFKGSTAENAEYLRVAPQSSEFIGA

## CCCCOc1c2cc(C(=O)Nc3cc(C(=O)O)cc(C(=O)OCc4ccccc4)c3)cc1Cc1cc(C(=O)Nc3cc(C(=O)O)cc(C(=O)OCc4ccccc4)c3)cc(c1OCCCC)Cc1cc(C(=O)Nc3cc(C(=O)O)cc(C(=O)OCc4ccccc4)c3)cc(c1OCCCC)Cc1cc(C(=O)Nc3cc(C(=O)O)cc(C(=O)OCc4ccccc4)c3)cc(c1OCCCC)C2 [GFB204]
A-549 xenografts; 1 mg/kg i.p. once daily
  average tumor size: 650±114 mm^3
A-549 xenografts; 1 mg/kg, not statistically significant
  tumor growth inhibition: 15%
A-549 xenografts; 5 mg/kg i.p. once daily
  average tumor size: 284±108 mm^3
A-549 xenografts; 5 mg/kg, statistically significant (p<0.05)
  tumor growth inhibition: 73%
EGFR
  [I-125]EGF binding to its receptor: not affected
VEGF
  binding to VEGF by tryptophan fluorescence titration: binds both PDGF and VEGF
[1]
  EGF-stimulation of the phosphorylation of Erk1, Erk2, Akt and STAT3: had little effect and not
PDGF
  binding to PDGF by tryptophan fluorescence titration: binds both PDGF and VEGF
[2]
  PDGF-stimulation of the phosphorylation of Erk1, Erk2, Akt and STAT3: blocked; also recorded: inhibited
